“And” between values parts separate entries of the source, which are not always exact repeats. Identical values can stand only once. Like-named read-outs stand apart in the source and are kept apart here. Each block holds one compound with its values, some of them ahead of it.
How the values were obtained:
[1] = DPPH radical scavenging activity; settings: for IC50: 200 μM DPPH solution
Experimental: The DPPH radical scavenging activity was conducted to thoroughly evaluate the antioxidant potential of andrographolide and its analogues. We modified the assay employing the Sekhon-Loodu and Rupasinghe methods. A DPPH solution was prepared in absolute ethanol, with a concentration of 200 μM. Next, 100 μL of DPPH solution was mixed with 100 μL of the sample in a 96-well plate. The mixture was then incubated for 30 minutes at room temperature. Following incubation, we measured the absorbance at 517 nm using a microplate reader. We tested the antioxidant properties of the compounds at a concentration of 500 μM to detect the weak-to-moderate antioxidants while addressing solubility limitations and minimizing assay artefacts, consistent with previous research. The DPPH radical scavenging activity was precisely expressed as a percentage of DPPH inhibition (% DPPH Inhibition). We selected candidates based on their higher inhibitory activity and prepared various concentrations of these candidates for testing. α-tocopherol, also known as vitamin E, was employed as a positive control. The % DPPH Inhibition was calculated as follows:
%DPPH Inhibition=(1–{A/B})×100
Where A was the absorbance of the DPPH with sample, and B was the absorbance of the DPPH with vehicle (blank).

[2] = Ferric reducing antioxidant power (FRAP) activity
Experimental: The FRAP activity assay was performed to assess the reducing power ability to reduce ferric ions (Fe^3+) to ferrous ions (Fe^2+), following the established method described by Sekhon-Loodu and Rupasinghe. The FRAP reagent was freshly prepared by combining 300 mM acetate buffer pH 3.6, 10 mM 2,4,6- Tri(2-pyridyl)-s-triazine (TPTZ) dissolved in 40 mM HCl, and 20 mM FeCl3 in a ratio of 10:1:1. Ferrous sulfate (FeSO4) was used as a standard, with ascorbic acid serving as a control. The assay was conducted in a 96-well plate by mixing 20 μL of the sample, standard, or positive control with 80 μL of the FRAP solution. The mixture was then incubated for 20 minutes at room temperature, after which we measured absorbance at 595 nm using a microplate reader. The results were expressed as FRAP value, reported as ascorbic acid equivalent in μM (AAE, μM), providing a definitive measure of reducing power.

[3] = target: T1, α-glucosidase from Saccharomyces cerevisiae (Saccharomyces cerevisiae, UniProt P38158); test: Surface plasmon resonance, steady-state affinity; assay type: binding
Experimental: All experiments were conducted using a Biacore X100 instrument at 25 °C with a running buffer of 1X PBS-P+ (10 mM phosphate buffer pH 7.4, 2.7 mM KCl, 137 mM NaCl, 0.05% Tween 20) supplemented with 5% DMSO. Compounds were initially dissolved in DMSO to a final concentration of 14 mM. The stock solution was then diluted to 700 μM in 1.05X PBS-P+ to prepare a compound solution containing 1X PBS-P+ with 5% DMSO. This compound solution was utilized to prepare the required concentrations for injections into the Biacore system. α-glucosidase from Saccharomyces cerevisiae was immobilized onto a CM5 chip following standard amine coupling procedures: the CM5 chip, containing channel 1 and 2, was activated with an injection of NHS/EDC mixture with a contact time of 540 s at a flow rate of 10 µL/min. This was followed by multiple injections of α-glucosidase dissolved in 10 mM sodium acetate pH 4.0 (50 µg/mL) onto channel 2, also with a contact time of 540 s at a flow rate of 10 µL/min. Both channels were inactivated by an injection of 1M ethanolamine at a flow rate of 10 µL/min for 540 s. An immobilization level of 3300 RU of α-glucosidase was achieved.
Multi-cycle affinity studies were conducted with a 100 s association phase and a 60 s dissociation phase, using a flow rate of 30 µL/min. Compounds were injected onto the chip at increasing concentrations of 7, 21, 70, 210, and 490 μM. Binding measurements were taken after reference subtraction of channel 1 (no immobilized α-glucosidase) and after subtracting the results from a blank injection with zero analyte concentration. All data evaluation was performed with Biacore X100 evaluation software (version 2.0).

[4] = target: T1, α-glucosidase from Saccharomyces cerevisiae; test: α-glucosidase inhibition activity (p-NPG substrate); assay type: biochemical
Experimental: An in vitro α-glucosidase inhibitory assay is commonly used to evaluate the inhibitory effects of various compounds on the enzyme α-glucosidase, which is involved in carbohydrate digestion. Inhibiting this enzyme results in slower glucose absorption, which can be beneficial for managing postprandial blood sugar levels in diabetic conditions. This assay was modified from the methods described by Yusuf et al.. The procedure involved mixing 25 μL of the sample, 150 μL of phosphate buffer saline (PBS) pH 7.4, and 75 μL of 10 mM p-NPG. The mixture was incubated at 37 °C for 10 min. Next, 50 μL of α-glucosidase enzyme from Saccharomyces cerevisiae at a concentration of 0.1 U/mL was added, then incubated at 37 °C for 10 min. To terminate the reaction, […] of 0.1 M sodium carbonate (Na2CO3) was added to the mixture. The absorbance was measured using a microplate reader. The percentage of α-glucosidase inhibition was calculated as follows:
α−glucosidase inhibition(%)=(1–{A−B/C−D})×100
Where A was the absorbance of the sample with α-glucosidase enzyme, B was the absorbance of the sample, C was the absorbance of vehicle with α-glucosidase enzyme, and D was the absorbance of the vehicle (blank).

[5] = 500 μM, second replicate column

T1 sequence (P38158 whole entry): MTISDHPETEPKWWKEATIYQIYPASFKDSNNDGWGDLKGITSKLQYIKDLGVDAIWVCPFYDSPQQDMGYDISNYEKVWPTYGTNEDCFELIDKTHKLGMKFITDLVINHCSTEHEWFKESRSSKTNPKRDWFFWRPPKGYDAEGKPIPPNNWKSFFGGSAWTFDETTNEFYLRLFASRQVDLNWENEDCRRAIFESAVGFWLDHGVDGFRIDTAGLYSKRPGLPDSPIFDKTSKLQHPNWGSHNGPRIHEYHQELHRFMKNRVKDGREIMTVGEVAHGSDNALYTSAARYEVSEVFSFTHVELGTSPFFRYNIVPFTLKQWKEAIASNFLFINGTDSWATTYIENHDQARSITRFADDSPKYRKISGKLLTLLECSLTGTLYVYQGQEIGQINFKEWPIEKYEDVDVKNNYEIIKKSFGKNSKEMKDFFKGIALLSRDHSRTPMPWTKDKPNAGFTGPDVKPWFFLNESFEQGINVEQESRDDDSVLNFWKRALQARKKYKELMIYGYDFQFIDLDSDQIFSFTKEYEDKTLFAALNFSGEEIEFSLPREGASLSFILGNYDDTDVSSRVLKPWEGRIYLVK

SMILES: C=C1CCC2C(C)(COC(C)=O)C(OC(C)=O)CCC2(C)C1CC(SC(=S)N1CCN(c2ccc(O)cc2)CC1)C1=CCOC1=O (centres unmarked) [compound 3f]
IC50 [1]: ~25 µM
% Inhibition (DPPH), replicate 1 ([1]; 500 μM, first replicate column): 85.7465%
% DPPH Inhibition, Mean ([1]; 500 μM, mean of n = 3): 84% and 84.47 ± 1.14% and 84.4719%
% Inhibition (DPPH), replicate 2 [1, 5]: 83.5328%
% Inhibition (DPPH), replicate 3 ([1]; 500 μM, third replicate column): 84.1364%
FRAP, Ascorbic acid equivalent, replicate 1 ([2]; 500 μM, first replicate column): 109.9203 AAE, μM
FRAP, Ascorbic acid equivalent, replicate 2 [2, 5]: 87.9587 AAE, μM
FRAP, Ascorbic acid equivalent, replicate 3 ([2]; 500 μM, third replicate column): 67.0175 AAE, μM
FRAP activity ([2]; 600 μM): 253.90 ± 47.40 AAE
Kd [3]: 12.9 µM
fold stronger affinity than andrographolide ([3]; from SPR KD values): approximately 10 fold
IC50 ([4]; IC50 (α-glucosidase inhibitory activity), concentration range up to 2000 μM): 411 µM and ~411 µM
inhibition at 31.2 µM ([4]; read-out: α-glucosidase inhibition (%), Mean, 31.2 μM): -0.49%
inhibition at 62.5 µM ([4]; read-out: α-glucosidase inhibition (%), Mean, 62.5 μM): 5.53%
inhibition at 125 µM ([4]; read-out: α-glucosidase inhibition (%), Mean, 125 μM): 15.2%
inhibition at 250 µM ([4]; read-out: α-glucosidase inhibition (%), Mean, 250 μM): 26.6%
inhibition at 500 µM ([4]; read-out: α-glucosidase inhibition (%), Mean, 500 μM): 56.3%
inhibition at 1000 µM ([4]; read-out: α-glucosidase inhibition (%), Mean, 1000 μM): 78%
inhibition at 2000 µM ([4]; read-out: α-glucosidase inhibition (%), Mean, 2000 μM): 81.9%
inhibition at 31.2 µM ([4]; read-out: α-glucosidase inhibition (%), replicate 1, 31.2 μM, first replicate column): 3.15%
inhibition at 62.5 µM ([4]; read-out: α-glucosidase inhibition (%), replicate 1, 62.5 μM, first replicate column): 5.24%
inhibition at 125 µM ([4]; read-out: α-glucosidase inhibition (%), replicate 1, 125 μM, first replicate column): 19.1%
inhibition at 250 µM ([4]; read-out: α-glucosidase inhibition (%), replicate 1, 250 μM, first replicate column): 28.2%
inhibition at 500 µM ([4]; read-out: α-glucosidase inhibition (%), replicate 1, 500 μM, first replicate column): 59.3%
inhibition at 1000 µM ([4]; read-out: α-glucosidase inhibition (%), replicate 1, 1000 μM, first replicate column): 78.6%
inhibition at 2000 µM ([4]; read-out: α-glucosidase inhibition (%), replicate 1, 2000 μM, first replicate column): 81.9%
inhibition at 31.2 µM ([4]; read-out: α-glucosidase inhibition (%), replicate 2, 31.2 μM, second replicate column): -1.2%
inhibition at 62.5 µM ([4]; read-out: α-glucosidase inhibition (%), replicate 2, 62.5 μM, second replicate column): 7.4%
inhibition at 125 µM ([4]; read-out: α-glucosidase inhibition (%), replicate 2, 125 μM, second replicate column): 17.6%
inhibition at 250 µM ([4]; read-out: α-glucosidase inhibition (%), replicate 2, 250 μM, second replicate column): 28.1%
inhibition at 500 µM ([4]; read-out: α-glucosidase inhibition (%), replicate 2, 500 μM, second replicate column): 57.1%
inhibition at 1000 µM ([4]; read-out: α-glucosidase inhibition (%), replicate 2, 1000 μM, second replicate column): 78%
inhibition at 2000 µM ([4]; read-out: α-glucosidase inhibition (%), replicate 2, 2000 μM, second replicate column): 81.9%
inhibition at 31.2 µM ([4]; read-out: α-glucosidase inhibition (%), replicate 3, 31.2 μM, third replicate column): -3.42%
inhibition at 62.5 µM ([4]; read-out: α-glucosidase inhibition (%), replicate 3, 62.5 μM, third replicate column): 3.94%
inhibition at 125 µM ([4]; read-out: α-glucosidase inhibition (%), replicate 3, 125 μM, third replicate column): 8.93%
inhibition at 250 µM ([4]; read-out: α-glucosidase inhibition (%), replicate 3, 250 μM, third replicate column): 23.5%
inhibition at 500 µM ([4]; read-out: α-glucosidase inhibition (%), replicate 3, 500 μM, third replicate column): 52.6%
inhibition at 1000 µM ([4]; read-out: α-glucosidase inhibition (%), replicate 3, 1000 μM, third replicate column): 77.3%
inhibition at 2000 µM ([4]; read-out: α-glucosidase inhibition (%), replicate 3, 2000 μM, third replicate column): 82%

IC50 [1]: ~25 µM
SMILES: Cc1c(C)c2c(c(C)c1O)CC[C@@](C)(CCC[C@H](C)CCC[C@H](C)CCCC(C)C)O2 [α-tocopherol]
